According to patent US7138361B2, “Herbicidal heterocycles” (E. I. du Pont de Nemours and Company, priority 2000, dated 2006):

Legend:
Assay type in all cases: in vivo
rice (Oryza saliva) = assay: Test B preemergence
Method in brief: (§1)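 Visual injury scores, 0 = no effect to 100 = complete control, assigned against controls after 13 to 15 days in the greenhouse. Compounds formulated in non-phytotoxic solvent plus surfactant and applied to soil after planting (pre) or onto foliage of 1- to 4-leaf plants (post).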

[1] = system: Surinam grass (Brachiaria decumbens); assay: Test B preemergence
Method in brief: as §1

[2] = system: morning glory (Ipomoea hederacea); assay: Test B preemergence
Method in brief: as §1

[3] = system: crabgrass (Digitaria sanguinalis); assay: Test B preemergence
Method in brief: as §1

[4] = system: pigweed (Amaranthus retroflexus); assay: Test B preemergence
Method in brief: as §1

[5] = system: lambsquarters (Chenopodium album); assay: Test B preemergence
Method in brief: as §1

[6] = system: barnyardgrass (Echinochloa crus-galli); assay: Test B preemergence
Method in brief: as §1

[7] = system: cocklebur (Xanthium strumarium); assay: Test B preemergence
Method in brief: as §1

[8] = system: velvetleaf (Abutilon theophrasti); assay: Test B preemergence
Method in brief: as §1

corn (Zea mays) = assay: Test B preemergence
Method in brief: as §1

[9] = system: giant foxtail (Setaria faberii); assay: Test B preemergence
Method in brief: as §1

[10] = system: bermudagrass (Cynodon dactylon); assay: Test C preemergence; settings: for Plant response rating, Bermudagrass: scale 0 to 100, 0 no effect, 100 complete control; for Plant response rating (0 to 100 where 0 is no effect and 100 is complete control), Bermudagrass: preemergence, visual evaluation after 12 to 14 days
Method in brief: (§2)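 Visual 0–100 rating vs controls (0 = no effect, 100 = complete control) at 12–14 d, greenhouse. Compounds in non-phytotoxic solvent + surfactant; pre: sprayed after seeding; post: 1–4-leaf plants, 2–18 cm.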

[11] = system: Surinam grass (Brachiaria decumbens); assay: Test C preemergence; settings: for Plant response rating, Surinam grass: scale 0 to 100, 0 no effect, 100 complete control; for Plant response rating (0 to 100), Surinam grass: preemergence, visual evaluation after 12 to 14 days
Method in brief: as §2

[12] = system: woolly cupgrass (Eriochloa villosa); assay: Test C preemergence; settings: for Plant response rating, Cupgrass, Woolly: scale 0 to 100, 0 no effect, 100 complete control; for Plant response rating (0 to 100), Cupgrass, Woolly: preemergence, visual evaluation after 12 to 14 days
Method in brief: as §2

kochia (Kochia scoparia) = assay: Test C preemergence; settings: for Plant response rating, Kochia: scale 0 to 100, 0 no effect, 100 complete control; for Plant response rating (0 to 100), Kochia: preemergence, visual evaluation after 12 to 14 days
Method in brief: as §2

[13] = system: crabgrass (Digitaria sanguinalis); assay: Test C preemergence; settings: for Plant response rating, Crabgrass: scale 0 to 100, 0 no effect, 100 complete control; for Plant response rating (0 to 100), Crabgrass: preemergence, visual evaluation after 12 to 14 days
Method in brief: as §2

soybean (Glycine max) = assay: Test C preemergence; settings: for Plant response rating, Soybean: scale 0 to 100, 0 no effect, 100 complete control; for Plant response rating (0 to 100), Soybean: Rate 500 g/ha, visual evaluation after 12 to 14 days
Method in brief: as §2

[14] = system: pigweed (Amaranthus retroflexus); assay: Test C preemergence; settings: for Plant response rating, Pigweed: scale 0 to 100, 0 no effect, 100 complete control; for Plant response rating (0 to 100), Pigweed: Rate 500 g/ha, visual evaluation after 12 to 14 days
Method in brief: as §2

[15] = system: cocklebur (Xanthium strumarium); assay: Test C preemergence; settings: for Plant response rating, Cocklebur: scale 0 to 100, 0 no effect, 100 complete control; for Plant response rating (0 to 100), Cocklebur: preemergence, visual evaluation after 12 to 14 days
Method in brief: as §2

[16] = system: giant foxtail (Setaria faberii); assay: Test C preemergence; settings: for Plant response rating, Foxtail, Giant: scale 0 to 100, 0 no effect, 100 complete control; for Plant response rating (0 to 100), Foxtail, Giant: preemergence, visual evaluation after 12 to 14 days
Method in brief: as §2

Sunflower = assay: Test C preemergence; settings: Rate 250 g/ha, scale 0 to 100, 0 no effect, 100 complete control
Nightshade = assay: Test C preemergence; settings: Rate 500 g/ha, visual evaluation after 12 to 14 days
[17] = Preemergence, Rate 500 g/ha, scale 0 to 100, 0 no effect, 100 complete control
[18] = preemergence, Rate 125 g/ha, scale of 0 to 100 where 0 is no effect and 100 is complete control, 13 to 15 days

CCC(C)c1ccn(C2CCN(c3ccc(C)c(OC)c3)C2=O)n1 (centres unmarked) [Compound 80]
90: Plant response rating, Rice (rice (Oryza saliva); [17]) | Plant response rating, Surinam grass [1, 17] | Plant response rating, Cupgrass, Woolly ([12]; Rate 62 g/ha)
50: Plant response rating, Soybean (soybean (Glycine max); preemergence, Rate 250 g/ha) | Plant response rating, Cocklebur ([15]; Rate 125 g/ha) | Plant response rating (0 to 100), Foxtail, Giant ([16]; Rate 500 g/ha)
80: Plant response rating, Surinam grass [1, 18]
40: Plant response rating (0 to 100), Pigweed ([14]; preemergence) | Plant response rating (0 to 100), Foxtail, Giant ([16]; Rate 250 g/ha)
60: Plant response rating, Rice (rice (Oryza saliva); [18]) | Plant response rating, Morningglory [2, 18] | Plant response rating, Sunflower (Sunflower)
0: Plant response rating, Barnyardgrass [6, 18] | Plant response rating, Cocklebur [7, 17] | Plant response rating, Cocklebur [7, 18] | Plant response rating, Velvetleaf [8, 18] | Plant response rating, Corn (corn (Zea mays); [18]) | Plant response rating, Pigweed ([14]; Rate 125 g/ha) | Plant response rating, Pigweed ([14]; preemergence, Rate 250 g/ha) | Plant response rating, Cocklebur ([15]; Rate 62 g/ha) | Plant response rating (0 to 100), Cocklebur ([15]; Rate 250 g/ha) | Plant response rating, Foxtail, Giant ([16]; Rate 62 g/ha)
30: Plant response rating, Soybean (soybean (Glycine max); Rate 125 g/ha)
20: Plant response rating, Corn (corn (Zea mays); [17]) | Plant response rating, Surinam grass ([11]; Rate 62 g/ha)
100: Plant response rating, Morningglory [2, 17] | Plant response rating, Crabgrass [3, 17] | Plant response rating, Crabgrass [3, 18] | Plant response rating, Pigweed [4, 17] | Plant response rating, Pigweed [4, 18] | Plant response rating, Lambsquarters [5, 17] | Plant response rating, Lambsquarters [5, 18] | Plant response rating, Barnyardgrass [6, 17] | Plant response rating, Foxtail, Giant [9, 17] | Plant response rating, Foxtail, Giant [9, 18] | Plant response rating, Bermudagrass ([10]; Rate 62 g/ha) | Plant response rating, Bermudagrass ([10]; Rate 125 g/ha) | Plant response rating (0 to 100 where 0 is no effect and 100 is complete control), Bermudagrass ([10]; Rate 250 g/ha) | Plant response rating (0 to 100 where 0 is no effect and 100 is complete control), Bermudagrass ([10]; Rate 500 g/ha) | Plant response rating (0 to 100), Surinam grass ([11]; Rate 250 g/ha) | Plant response rating (0 to 100), Surinam grass ([11]; Rate 500 g/ha) | Plant response rating, Cupgrass, Woolly ([12]; Rate 125 g/ha) | Plant response rating (0 to 100), Cupgrass, Woolly ([12]; Rate 250 g/ha) | Plant response rating (0 to 100), Cupgrass, Woolly ([12]; Rate 500 g/ha) | Plant response rating, Kochia (kochia (Kochia scoparia); Rate 62 g/ha) | Plant response rating, Kochia (kochia (Kochia scoparia); Rate 125 g/ha) | Plant response rating (0 to 100), Kochia (kochia (Kochia scoparia); Rate 250 g/ha) | Plant response rating (0 to 100), Kochia (kochia (Kochia scoparia); Rate 500 g/ha) | Plant response rating, Crabgrass ([13]; Rate 62 g/ha) | Plant response rating, Crabgrass ([13]; Rate 125 g/ha) | Plant response rating (0 to 100), Crabgrass ([13]; Rate 250 g/ha) | Plant response rating (0 to 100), Crabgrass ([13]; Rate 500 g/ha) | Plant response rating (0 to 100), Soybean (soybean (Glycine max); preemergence) | Plant response rating (0 to 100), Cocklebur ([15]; Rate 500 g/ha) | Plant response rating, Foxtail, Giant ([16]; Rate 125 g/ha) | Plant response rating (0 to 100), Nightshade (Nightshade)
70: Plant response rating, Velvetleaf [8, 17] | Plant response rating, Surinam grass ([11]; Rate 125 g/ha)

CC(C)Oc1cccc(N2CCC(n3ccc(C(C)C)n3)C2=O)c1 (centres unmarked) [Compound 82]
10: Plant response rating, Surinam grass ([11]; Rate 62 g/ha) | Plant response rating, Soybean (soybean (Glycine max); Rate 125 g/ha) | Plant response rating, Cocklebur ([15]; Rate 125 g/ha)
90: Plant response rating, Surinam grass [1, 18] | Plant response rating, Bermudagrass ([10]; Rate 125 g/ha) | Plant response rating, Cupgrass, Woolly ([12]; Rate 125 g/ha) | Plant response rating (0 to 100), Cupgrass, Woolly ([12]; Rate 250 g/ha) | Plant response rating, Kochia (kochia (Kochia scoparia); Rate 125 g/ha)
70: Plant response rating, Rice (rice (Oryza saliva); [18]) | Plant response rating (0 to 100), Surinam grass ([11]; Rate 250 g/ha) | Plant response rating, Cupgrass, Woolly ([12]; Rate 62 g/ha) | Plant response rating, Pigweed ([14]; Rate 125 g/ha) | Plant response rating, Sunflower (Sunflower)
60: Plant response rating (0 to 100), Soybean (soybean (Glycine max); preemergence)
100: Plant response rating, Rice (rice (Oryza saliva); [17]) | Plant response rating, Surinam grass [1, 17] | Plant response rating, Crabgrass [3, 17] | Plant response rating, Crabgrass [3, 18] | Plant response rating, Pigweed [4, 17] | Plant response rating, Pigweed [4, 18] | Plant response rating, Lambsquarters [5, 17] | Plant response rating, Lambsquarters [5, 18] | Plant response rating, Barnyardgrass [6, 17] | Plant response rating, Barnyardgrass [6, 18] | Plant response rating, Foxtail, Giant [9, 17] | Plant response rating, Foxtail, Giant [9, 18] | Plant response rating, Bermudagrass ([10]; Rate 62 g/ha) | Plant response rating (0 to 100 where 0 is no effect and 100 is complete control), Bermudagrass ([10]; Rate 250 g/ha) | Plant response rating (0 to 100 where 0 is no effect and 100 is complete control), Bermudagrass ([10]; Rate 500 g/ha) | Plant response rating (0 to 100), Surinam grass ([11]; Rate 500 g/ha) | Plant response rating (0 to 100), Cupgrass, Woolly ([12]; Rate 500 g/ha) | Plant response rating (0 to 100), Kochia (kochia (Kochia scoparia); Rate 250 g/ha) | Plant response rating (0 to 100), Kochia (kochia (Kochia scoparia); Rate 500 g/ha) | Plant response rating, Crabgrass ([13]; Rate 62 g/ha) | Plant response rating, Crabgrass ([13]; Rate 125 g/ha) | Plant response rating (0 to 100), Crabgrass ([13]; Rate 250 g/ha) | Plant response rating (0 to 100), Crabgrass ([13]; Rate 500 g/ha) | Plant response rating, Pigweed ([14]; preemergence, Rate 250 g/ha) | Plant response rating (0 to 100), Foxtail, Giant ([16]; Rate 250 g/ha) | Plant response rating (0 to 100), Foxtail, Giant ([16]; Rate 500 g/ha) | Plant response rating (0 to 100), Nightshade (Nightshade)
20: Plant response rating, Corn (corn (Zea mays); [17]) | Plant response rating (0 to 100), Cocklebur ([15]; Rate 250 g/ha)
30: Plant response rating, Soybean (soybean (Glycine max); preemergence, Rate 250 g/ha) | Plant response rating, Foxtail, Giant ([16]; Rate 62 g/ha)
80: Plant response rating, Surinam grass ([11]; Rate 125 g/ha)
0: Plant response rating, Morningglory [2, 17] | Plant response rating, Morningglory [2, 18] | Plant response rating, Cocklebur [7, 17] | Plant response rating, Cocklebur [7, 18] | Plant response rating, Velvetleaf [8, 17] | Plant response rating, Velvetleaf [8, 18] | Plant response rating, Corn (corn (Zea mays); [18]) | Plant response rating, Kochia (kochia (Kochia scoparia); Rate 62 g/ha) | Plant response rating (0 to 100), Pigweed ([14]; preemergence) | Plant response rating, Cocklebur ([15]; Rate 62 g/ha) | Plant response rating, Foxtail, Giant ([16]; Rate 125 g/ha)
40: Plant response rating (0 to 100), Cocklebur ([15]; Rate 500 g/ha)
